What was measured:
[1] = system: SMAD3; settings: cited from earlier work
[2] = target: T1, SMAD3 (Rattus norvegicus, UniProt P84025); assay: Excitability of DRG neurons with TGF-β and SIS3; type: cell-based; settings: SIS3 3 μM
T1 construct: endogenous in cells; host or cells: primary DRG neurons
Method: SIS3 was dissolved in DMSO and diluted in culture media that was added at the time of plating with a final concentration of 3 μM. After one hour, the culture wells received TGF-β1 (0.2 ng/ml) for further incubation. Most cells were patched at 12-24 h, and both agents were refreshed daily if incubated for over 24 h.

[3] = target: SMAD3 (Homo sapiens, UniProt P84022); settings: cited from earlier work
Chain of SMAD3 (Homo sapiens, UniProt P84022) (P84022 whole entry): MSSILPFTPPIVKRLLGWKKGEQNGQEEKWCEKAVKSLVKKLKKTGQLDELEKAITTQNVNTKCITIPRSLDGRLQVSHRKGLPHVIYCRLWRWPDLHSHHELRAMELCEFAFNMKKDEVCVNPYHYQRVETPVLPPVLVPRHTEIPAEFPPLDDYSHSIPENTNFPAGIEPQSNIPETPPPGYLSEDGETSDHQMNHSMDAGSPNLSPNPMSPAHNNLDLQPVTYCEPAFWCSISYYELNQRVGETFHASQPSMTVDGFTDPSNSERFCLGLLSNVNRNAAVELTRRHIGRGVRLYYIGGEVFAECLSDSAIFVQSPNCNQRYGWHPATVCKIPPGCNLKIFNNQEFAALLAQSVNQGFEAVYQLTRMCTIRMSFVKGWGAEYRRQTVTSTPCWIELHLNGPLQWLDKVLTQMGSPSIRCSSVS

[4] = target: T2, TRPV1 (Rattus norvegicus, UniProt O35433); assay: Capsaicin-induced inward current in DRG neurons; type: cell-based
T2 construct: endogenous in cells; host or cells: primary rat DRG neurons
T2 sequence (O35433 whole entry): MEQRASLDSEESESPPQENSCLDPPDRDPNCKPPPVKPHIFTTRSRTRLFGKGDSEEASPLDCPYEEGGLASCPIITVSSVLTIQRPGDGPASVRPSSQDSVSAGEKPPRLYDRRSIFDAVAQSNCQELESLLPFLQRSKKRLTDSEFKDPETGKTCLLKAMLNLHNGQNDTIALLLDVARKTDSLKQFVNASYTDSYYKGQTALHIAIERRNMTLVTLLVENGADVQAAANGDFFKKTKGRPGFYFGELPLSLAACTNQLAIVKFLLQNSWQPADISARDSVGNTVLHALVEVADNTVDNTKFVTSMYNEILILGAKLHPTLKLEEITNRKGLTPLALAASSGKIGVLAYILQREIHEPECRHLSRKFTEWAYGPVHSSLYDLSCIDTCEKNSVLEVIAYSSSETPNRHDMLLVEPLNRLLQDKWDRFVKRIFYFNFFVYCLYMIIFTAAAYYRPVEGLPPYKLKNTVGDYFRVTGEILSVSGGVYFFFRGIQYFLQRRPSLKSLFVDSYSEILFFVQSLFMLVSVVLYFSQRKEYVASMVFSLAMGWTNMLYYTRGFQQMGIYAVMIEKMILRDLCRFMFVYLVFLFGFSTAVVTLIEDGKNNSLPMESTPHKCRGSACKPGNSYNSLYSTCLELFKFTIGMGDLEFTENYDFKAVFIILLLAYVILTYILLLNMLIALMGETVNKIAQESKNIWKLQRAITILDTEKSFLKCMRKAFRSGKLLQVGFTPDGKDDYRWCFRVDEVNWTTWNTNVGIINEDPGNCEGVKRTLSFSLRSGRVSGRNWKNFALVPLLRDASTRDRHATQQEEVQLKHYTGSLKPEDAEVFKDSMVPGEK
Method: (§1) Electrophysiology. Whole-cell voltage patch-clamp recordings were conducted at room temperature (22-23° C.) on the stage of an inverted phase contrast microscope (Nikon Inc., Melville, N.Y.). The recording pipettes were pulled from borosilicate glass to give final resistances of […]. Data were acquired with Digidata interface (1200 series, Axon Instruments) and pClamp software (version 9.1, Axon Instruments). The concentrations of the electrode solutions (in mM) used in these experiments were as follows: for recording action potential, K^+ current and non-selective cationic current (pH adjusted to 7.3-7.4 using KOH): potassium gluconate (115), KCl (25), NaCl (5), HEPES (10), CaCl (1), EGTA (1.12) and ATP-Mg (2); for recording Na^+ current (pH adjusted to 7.3-7.4 using NaOH): CsF (110), MgCl2 (5), EGTA (11), NaCl (10) and HEPES (10). The cells were bathed in modified Tyrode saline consisting of (in mM): NaCl (135), KCl (5.4), MgCl2 (1), CaCl2 (2), NaH2PO3 (0.1), HEPES (10) and glucose (10). […] Action potentials were recorded in mode of I-clamp after observed membrane potential setting at I=0, and the currents were recorded by switching mode to v-clamp. The current signals were recorded to disk for off-line analysis using pCLAMP fit and Origin 7. Results were expressed as means±SE, n=number of cells. […]

[5] = system: TGF-β1, TGF-β2, and TGF-β3; settings: cited from earlier work
[6] = system: sodium channel; assay: Sodium channel currents in DRG neurons; type: cell-based, rat
Method: as §1

[7] = system: DRG neurons; assay: Patch-clamp excitability of DRG neurons from transgenic mice lacking glial TGF-β receptor response; type: cell-based, mouse
Text: Transgenic mice. To decrease the response to TGF-β specifically in astrocytes, we took advantage of a dominant negative mutation in the type II TGF-β receptor that has been cloned into a bidirectional doxycycline-regulatable element (bi-tetO) that also drives enhanced green fluorescent protein (GFP). Andrews, Z. B. et al., 2006 Neurobiol Dis. 21, 568-75. TetO-TBR2-DN mice were obtained from Jackson Laboratories, Bar Harbor, Me. This line was crossed to a GFAP-tTA transgenic line (Jackson Laboratories). This line confers expression of tetO transgenes to astrocytes in the absence of doxycycline, and is induced by injuries, including stroke. DRGs were dissected from these mice and cultured as above.
(§2) Electrophysiology. Whole-cell voltage patch-clamp recordings were conducted at room temperature (22-23° C.) on the stage of an inverted phase contrast microscope (Nikon Inc., Melville, N.Y.). The recording pipettes were pulled from borosilicate glass to give final resistances of […]. Data were acquired with Digidata interface (1200 series, Axon Instruments) and pClamp software (version 9.1, Axon Instruments). The concentrations of the electrode solutions (in mM) used in these experiments were as follows: for recording action potential, K^+ current and non-selective cationic current (pH adjusted to 7.3-7.4 using KOH): potassium gluconate (115), KCl (25), NaCl (5), HEPES (10), CaCl (1), EGTA (1.12) and ATP-Mg (2); for recording Na^+ current (pH adjusted to 7.3-7.4 using NaOH): CsF (110), MgCl2 (5), EGTA (11), NaCl (10) and HEPES (10). The cells were bathed in modified Tyrode saline consisting of (in mM): NaCl (135), KCl (5.4), MgCl2 (1), CaCl2 (2), NaH2PO3 (0.1), HEPES (10) and glucose (10). The osmolality was maintained at 280-300 mOsm for the intracellular electrolyte and 300-330 mOsm for the extracellular bath solution. Agents such as capsaicin, capsazepine, TEA, 4AP, TTX etc were delivered through a valve control system (BPS-4, Scientific Instrument, New York). Prior to patch clamping a cell, the amplifier (Axopatch 200B, Axon Instruments, CA, USA) was zeroed so that any junction potential was balanced by an offset potential. High resistance (Gigaohm) seals were formed between the recording electrode and cell membrane and ruptured by suction using standard patch clamp recording methods. Action potentials were recorded in mode of I-clamp after observed membrane potential setting at I=0, and the currents were recorded by switching mode to v-clamp. The current signals were recorded to disk for off-line analysis using pCLAMP fit and Origin 7. Results were expressed as means±SE, n=number of cells.

[8] = system: rat DRG neurons; assay: Whole-cell patch-clamp excitability of cultured DRG neurons; type: cell-based
Method: Dorsal Root Ganglia (DRG) neurons culture. Adult Sprague-Dawley rats (120-150 g) were sacrificed by decapitation. Thoracic and lumbar DRGs were then bilaterally dissected out and transferred to ice-cold Minimal Essential Medium (Gibco, Grand Island, N.Y.) supplemented with penicillin-streptomycin (2×, Gibco, Grand Island, N.Y.). After trimming axons and connective tissue, ganglia were transferred into enzyme solution, i.e., Hank's Balanced Salt Solution containing 5 mg/ml collagenase (Type 2, Worthington, Lakewood, N.J.), and incubated for three hours at 5% CO2-95% O2 37° C. A pellet was subsequently obtained by repeated trituration through flame-polished glass pipettes and centrifuged at 50×g for 10 minutes. Single cells were resuspended and plated onto poly-1-ornithine (Sigma) coated coverslips with neurobasal media (Gibco) supplemented with albumin solution (0.7%, Sigma), penicillin-streptomycin (2×), B27 with retinoic acid (2×, Invitrogen), beta-mercaptoethanol (0.11 mM, Gibco), mouse nerve growth factor ([…], Promega, Madison, Wis.) and L-glutamine (2×, Gibco). Recombinant TGF-β1 and TGF-β2 (Calbiochem, cat #616455, PF017) were dissolved in 10% ethanol in phosphate buffered saline (PBS) to yield a stock concentration of 10 ng/μl. TGF-β1 or TGF-β2 (10 ng/ml) was added to cultures at the beginning of incubation at 37° C. 5% CO2-95% O2.
Electrophysiology. Whole-cell voltage patch-clamp recordings were conducted at room temperature (22-23° C.) on the stage of an inverted phase contrast microscope (Nikon Inc., Melville, N.Y.). The recording pipettes were pulled from borosilicate glass to give final resistances of […]. Data were acquired with Digidata interface (1200 series, Axon Instruments) and pClamp software (version 9.1, Axon Instruments). The concentrations of the electrode solutions (in mM) used in these experiments were as follows: for recording action potential, K^+ current and non-selective cationic current (pH adjusted to 7.3-7.4 using KOH): potassium gluconate (115), KCl (25), NaCl (5), HEPES (10), CaCl (1), EGTA (1.12) and ATP-Mg (2); for recording Na^+ current (pH adjusted to 7.3-7.4 using NaOH): CsF (110), MgCl2 (5), EGTA (11), NaCl (10) and HEPES (10). The cells were bathed in modified Tyrode saline consisting of (in mM): NaCl (135), KCl (5.4), MgCl2 (1), CaCl2 (2), NaH2PO3 (0.1), HEPES (10) and glucose (10). The osmolality was maintained at 280-300 mOsm for the intracellular electrolyte and 300-330 mOsm for the extracellular bath solution. […] Action potentials were recorded in mode of I-clamp after observed membrane potential setting at I=0, and the currents were recorded by switching mode to v-clamp. The current signals were recorded to disk for off-line analysis using pCLAMP fit and Origin 7. Results were expressed as means±SE, n=number of cells.

[9] = system: Kv channels; assay: Voltage-dependent K+ currents in DRG neurons; type: cell-based, rat
Method: as §2
TGF-β influences K^+ and Na^+ channel activity (FIGS. 6 and 7). Voltage-dependent potassium (Kv) currents play a fundamental role in determining neuronal excitability. […]

[10] = system: conscious rats; assay: Nocifensive behaviors to electrical stimulation of the pancreas after intrapancreatic infusion of TGF-β; type: in vivo; settings: intra-pancreatic infusion, 400 ng per rat
Method: Intrapancreatic infusion of TGF-β. Rats were anesthetized with sodium nembutal (Abbott Laboratories, Chicago, Ill.) (50 mg/kg body weight, i.p.). The peritoneum was incised to expose the duodenum, and the duodenal loop was pulled out. The pancreatic duct entering the duodenum was identified under dissecting microscope, and a small niche was made into the duct with a 30-gauge needle. A polyethylene 10 tubing (0.61 mm outer diameter) (Becton Dickinson and Company, Franklin Lakes, N.J.) was guided into the duct and tied to secure its position. The position of the tube in the pancreatic duct was confirmed by observing bile flowing through the tubing. The common bile duct was ligated close to the liver to prevent entry of the injected substance into the liver. Similarly the duct was ligated near its entry into the duodenum. Four hundred μl (0.4 ml) per rat of 400 ng of TGF-β1 or TGF-β2 in 10% ethanol in phosphate buffered saline (PBS) or vehicle alone was injected through a syringe connected to the tubing. The tubing was carefully removed and bile flow from the liver into the duodenum was re-established. The abdominal cavity was closed with sutures and rats allowed to recover.
Behavioral Studies of Rats with Chronic Pancreatitis. […] The number of nocifensive behaviors observed during 5 min of stimulation period was counted. […]

[11] = system: spinal cord laminae I/II FOS positive cells; assay: FOS immunochemistry in spinal cord after intrapancreatic TGF-β infusion and electrical stimulation; type: in vivo, rat; settings: intra-pancreatic infusion 400 ng followed by ES
Method: FOS Immunochemistry. Eight rats were used for this experiment (TGF-β n=4; Vehicle n=4). TGF-β2 (400 ng) in 0.4 ml of 10% ETOH/PBS or vehicle alone were infused into pancreatic duct of rats. 24 hours later rats underwent noxious electrical stimulation of the pancreas (5 mA for 5 minutes). Thirty minutes later the rats were transcardially perfused with 150 ml of normal saline followed by ice cold 400 ml of 4% paraformaldehyde in 0.1M phosphate buffer (PB) pH 7.4. Spinal cord segments corresponding to DRG T8-T10 were identified, cut and post-fixed in 4% paraformaldehyde over night. The samples were then transferred to 30% sucrose in 0.1 M PB for 24 hours at 4° C. followed by freezing on dry ice with optimum cutting temperature (OCT). Frozen serial coronal sections (35 μm) were cut on a cryostat, collected in separate wells of a 24-well plate and stored floating in antifreeze at −20° C. We processed a total of 6 sections per segment. The sections were stained with a rabbit polyclonal primary antiserum directed against FOS (ab7963, Abcam, Cambridge Mass.), diluted (1:2000) in PB saline containing 3% normal goat serum and 0.1% Triton X-100, for 24 h at 4° C. […] The number of FOS positive cells in spinal cord laminae I/II were counted under 40× magnification from 6 slices per individual spinal segment per animal by two blinded investigators.

T1 sequence (P84025 whole entry): as the sequence (P84022 whole entry) above

NC(=O)c1ccc(-c2nc(-c3ccc4c(c3)OCO4)c(-c3ccccn3)[nH]2)cc1 [SB431542]
Smad3 phosphorylation [1]: selective inhibition of Smad3 phosphorylation

Cc1cc2c(cc1C)CN(C(=O)/C=C/c1c(-c3ccccc3)n(C)c3ncccc13)CC2.Cl [SIS3]
decrease in RMP induced by TGFβ ([2]; TGF-β 10 ng/ml, 48 hours): prevented the decrease in RMP | TGF-β1 induced changes in frequency of action potentials at 2× rheobase current ([2]; TGF-β1 0.2 ng/ml): attenuate | TGF-β1 induced changes in resting membrane potential (RMP) ([2]; TGF-β1 0.2 ng/ml): attenuate | TGF-β1 induced changes in rheobase ([2]; TGF-β1 0.2 ng/ml): attenuate | production of extracellular matrix ([3]; TGF-β1-treated normal fibroblasts and scleroderma fibroblasts): blocked excessive production of extracellular matrix | Smad3 phosphorylation [3]: suppresses Smad3 phosphorylation

Oc1cc2c(cc1O)CN(C(=S)NCCc1ccc(Cl)cc1)CCC2 [capsazepine, reference compound]
effect on capsaicin-induced inward current ([4]; middle sized neurons): suppressible

GC1008: humanized TGF-β-neutralizing monoclonal antibody
neutralization of TGF-β ligands/isoforms [5]: capable of neutralizing all three TGF-β isoforms

TGF-β
density of TTXR current ([6]; n=7): 114.25±27.32 | density of total INa ([6]; n=23): 216.12±15.01 | RMP ([7]; transgenic mouse DRG preparations, 10 ng/ml): −49.7±5.5 mV | resting membrane potential (RMP) ([8]; rat DRG cultures exposed to TGF-β, n=21): −48.8±7.6 mV | proportion of tested cells showing multiple action potentials ([8]; rat DRG neurons): 43% | current pulse (rheobase) required for triggering an action potential ([8]; rat DRG neurons, n=11): 0.15±0.09 nA | number of action potentials evoked by two times rheobase current stimulation ([8]; rat DRG neurons, n=17): 2.75 Hz | tested neurons showing an absence of IA current ([9]; TGF-β treated neurons): 11 of 22 | Itotal density ([9]; all Kv channels, DRG neurons in culture): did not result in a significant reduction | IA density ([9]; at +30 mV, n=10): 29.6±3.8 pA/pF | capsaicin induced current ([4]; neurons treated with TGF-β, n=17): 724.7±129.4 pA

TGF-β1: Recombinant TGF-β1 (Calbiochem)
rheobase ([7]; transgenic mouse DRG): 0.03 nA | firing threshold ([7]; transgenic mouse DRG, n=7): −35 mV | spikes ([7]; transgenic mouse DRG, n=7): 2.8±1.5 | behavioral response to noxious stimulation (electric stimulation, ES) [10]: hyperalgesic behavioral response

B1: TGF-β2: Recombinant TGF-β2 (Calbiochem) (protein, UniProt P61812 303-414, looked up)
Transforming growth factor …: ALDAAYCFRNVQDNCCLRPLYIDFKRDLGWKWIHEPKGYNANFCAGACPYLWSSDTQHSRVLSLYNTINPEASASPCCVSQDLEPLTILYYIGKTPKIEQLSNMIVKSCKCS
modifications: Transforming growth factor beta-2
FOS expression in the spinal cord [11]: greater FOS expression | behavioral response to noxious stimulation (electric stimulation, ES) [10]: hyperalgesic behavioral response

— patent US8800906B2, “Use of transforming growth factor-beta neutralizing antibodies and fusion proteins thereof in treating pain” (The Board of Trustees of the Leland Stanford Junior …, priority 2010, dated 2014)
